# In US8680159B2, “Bradykinin 1 receptor modulating compounds” (Gruenenthal GmbH, priority 2010, dated 2014):
# Biological target: T1, B1R receptor of the rat (CHO K1 cells stably transfected with the B1R gene of the rat) (Rattus norvegicus, UniProt P97583)
# T1 construct: expressed in transfected cells; host or cells: CHO K1 cells (Chinese hamster ovary), stably transfected
# T1 sequence (P97583 1-337): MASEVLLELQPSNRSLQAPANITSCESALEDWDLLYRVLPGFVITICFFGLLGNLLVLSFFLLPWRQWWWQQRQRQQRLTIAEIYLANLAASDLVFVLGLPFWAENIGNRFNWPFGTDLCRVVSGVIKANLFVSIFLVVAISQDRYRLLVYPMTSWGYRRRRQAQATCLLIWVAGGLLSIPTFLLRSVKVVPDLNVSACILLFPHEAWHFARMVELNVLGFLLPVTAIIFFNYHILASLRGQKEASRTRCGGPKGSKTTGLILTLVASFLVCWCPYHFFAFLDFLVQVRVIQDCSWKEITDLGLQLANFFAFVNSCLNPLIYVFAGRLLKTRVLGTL
# Experiment: Functional study on the bradykinin receptor 1 (B1R), Ca2+ fluorescence (Fluo-4) FLIPR/Novostar assay, rB1R cells
# Type: cell-based
# Details: CHO-K1, 10 μM, library compounds CC_H, read-out: % Inhibition (r-B1R) at 10 μM
# Procedure, shortened: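 Test compounds (10 μM) were added first and the Ca2+ rise was scored as % activation against Lys-Des-Arg9-bradykinin (≥50 nM, human) or Des-Arg9-bradykinin (≥1 μM, rat). After 6-20 min, the matching agonist was given at its EC80, and % inhibition relative to maximal achievable inhibition was calculated.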
row,SMILES,inhibition at 10 µM
1,"CN(C(=O)c1ccc2c(c1)C(NC(=O)c1cccnc1C(F)(F)F)CC2)C1CCN(c2ccnc(S(C)(=O)=O)n2)CC1 (stereo not shown) [CC_H-600, N-[6-[Methyl-[1-(2-methylsulfonyl-pyrimidin-4-yl)-piperidin-4-yl]-carbamoyl]-2,3-dihydro-1H-inden-1-yl]-2-(trifluoromethyl)-pyridine-3-carboxylic acid amide]",91%
2,"CN(C)C(=O)c1cc(N2CCC(N(C)C(=O)c3ccc4c(c3)C(NC(=O)c3cccnc3C(F)(F)F)CC4)CC2)ccn1 (stereo not shown) [CC_H-601, N-[6-[[1-[2-(Dimethyl-carbamoyl)-pyridin-4-yl]-piperidin-4-yl]-methyl-carbamoyl]-2,3-dihydro-1H-inden-1-yl]-2-(trifluoromethyl)-pyridine-3-carboxylic acid amide]",74%
3,"CN(C(=O)c1ccc2c(c1)C(NC(=O)c1cccnc1C(F)(F)F)CC2)C1CCN(c2ccnc(N3CCCC3)n2)CC1 (stereo not shown) [CC_H-603, N-[6-[Methyl-[1-(2-pyrrolidin-1-yl-pyrimidin-4-yl)-piperidin-4-yl]-carbamoyl]-2,3-dihydro-1H-inden-1-yl]-2-(trifluoromethyl)-pyridine-3-carboxylic acid amide]",102%
4,"Cc1cc(N2CCC(N(C)C(=O)c3ccc4c(c3)C(NC(=O)c3cccnc3C(F)(F)F)CC4)CC2)nc(N(C)C)n1 (stereo not shown) [CC_H-604, N-[6-[[1-(2-Dimethylamino-6-methyl-pyrimidin-4-yl)-piperidin-4-yl]-methyl-carbamoyl]-2,3-dihydro-1H-inden-1-yl]-2-(trifluoromethyl)-pyridine-3-carboxylic acid amide]",102%
5,"CN(C(=O)c1ccc2c(c1)C(NC(=O)c1cccnc1C(F)(F)F)CC2)C1CCN(c2ccnc(C(C)(C)C)n2)CC1 (stereo not shown) [CC_H-606, N-[6-[[1-(2-tert-Butyl-pyrimidin-4-yl)-piperidin-4-yl]-methyl-carbamoyl]-2,3-dihydro-1H-inden-1-yl]-2-(trifluoromethyl)-pyridine-3-carboxylic acid amide]",99%

# Other lines, results leading:
row,inhibition at 10 µM,SMILES
1,96%,"Cc1ncc2n1C(=O)N(C1CCC(N(C)C(=O)c3ccc4c(c3)C(NC(=O)c3cccnc3C(F)(F)F)CC4)CC1)C2 (stereo not shown) [CC_H-607, N-[6-[Methyl-[4-(5-methyl-3-oxo-1,2-dihydro-imidazo[5,1-e]imidazol-2-yl)-cyclohexyl]-carbamoyl]-2,3-dihydro-1H-inden-1-yl]-2-(trifluoromethyl)-pyridine-3-carboxylic acid amide]"
2,102%,"CN(C)c1nccc(N2CCC(N(C)C(=O)c3ccc4c(c3)C(NC(=O)c3cccnc3C(F)(F)F)CC4)CC2)n1 (stereo not shown) [CC_H-608, N-[6-[[1-(2-Dimethylamino-pyrimidin-4-yl)-piperidin-4-yl]-methyl-carbamoyl]-2,3-dihydro-1H-inden-1-yl]-2-(trifluoromethyl)-pyridine-3-carboxylic acid amide]"
3,102%,"CN(C(=O)c1ccc2c(c1)C(NC(=O)c1ccccc1Cl)CC2)C1CCN(c2ccnc(S(C)(=O)=O)n2)CC1 (stereo not shown) [CC_H-609, 3-[(2-Chloro-benzoyl)amino]-N-methyl-N-[1-(2-methylsulfonyl-pyrimidin-4-yl)-piperidin-4-yl]-2,3-dihydro-1H-indene-5-carboxylic acid amide]"
4,101%,"CN(C(=O)c1ccc2c(c1)C(NC(=O)c1cccnc1C(F)(F)F)CC2)C1CCN(c2ccnc(C3CC3)n2)CC1 (stereo not shown) [CC_H-610, N-[6-[[1-(2-Cyclopropyl-pyrimidin-4-yl)-piperidin-4-yl]-methyl-carbamoyl]-2,3-dihydro-1H-inden-1-yl]-2-(trifluoromethyl)-pyridine-3-carboxylic acid amide]"
5,101%,"CN(C(=O)c1ccc2c(c1)C(NC(=O)c1ccccc1Cl)CC2)C1CCN(c2ccnc(N3CCCC3)n2)CC1 (stereo not shown) [CC_H-612, 3-[(2-Chloro-benzoyl)amino]-N-methyl-N-[1-(2-pyrrolidin-1-yl-pyrimidin-4-yl)-piperidin-4-yl]-2,3-dihydro-1H-indene-5-carboxylic acid amide]"
6,90%,"CN(C(=O)c1ccc2c(c1)C(NC(=O)CCC1CCCC1)CC2)C1CCN(c2ccnc(S(C)(=O)=O)n2)CC1 (stereo not shown) [CC_H-613, 3-(3-Cyclopentyl-propanoylamino)-N-methyl-N-[1-(2-methylsulfonyl-pyrimidin-4-yl)-piperidin-4-yl]-2,3-dihydro-1H-indene-5-carboxylic acid amide]"
7,101%,"Cc1cc(N2CCC(N(C)C(=O)c3ccc4c(c3)C(NC(=O)c3ccccc3Cl)CC4)CC2)nc(N(C)C)n1 (stereo not shown) [CC_H-614, 3-[(2-Chloro-benzoyl)amino]-N-[1-(2-dimethylamino-6-methyl-pyrimidin-4-yl)-piperidin-4-yl]-N-methyl-2,3-dihydro-1H-indene-5-carboxylic acid amide]"

# Same assay, conditions: CHO-K1, 10 μM, read-out: % Inhibition (r-B1R) at 10 μM
row,inhibition at 10 µM,SMILES
1,77%,"CN(C(=O)NC1CCc2ccc(C(=O)N(C)C3CCN(c4ccc5cnccc5c4)CC3)cc21)c1ccc(Cl)cc1Cl (stereo not shown) [CC_H-376, 3-[[(2,4-Dichlorophenyl)-methyl-carbamoyl]amino]-N-(1-isoquinolin-6-yl-piperidin-4-yl)-N-methyl-2,3-dihydro-1H-indene-5-carboxylic acid amide]"
2,101%,"CCCS(=O)(=O)NC1CCc2ccc(C(=O)N(C)C3CCN(c4ccc5cnccc5c4)CC3)cc21 (stereo not shown) [CC_H-378, N-(1-Isoquinolin-6-yl-piperidin-4-yl)-N-methyl-3-[(propylsulfonyl)amino]-2,3-dihydro-1H-indene-5-carboxylic acid amide]"
3,110%,"CC(C)CC(=O)NC1CCc2ccc(C(=O)N(C)C3CCN(c4ccc5cnccc5c4)CC3)cc21 (stereo not shown) [CC_H-379, N-(1-Isoquinolin-6-yl-piperidin-4-yl)-N-methyl-3-(3-methyl-butanoylamino)-2,3-dihydro-1H-indene-5-carboxylic acid amide]"
4,103%,"CCCC(=O)NC1CCc2ccc(C(=O)N(C)C3CCN(c4ccc5cnccc5c4)CC3)cc21 (stereo not shown) [CC_H-380, 3-(Butanoylamino)-N-(1-isoquinolin-6-yl-piperidin-4-yl)-N-methyl-2,3-dihydro-1H-indene-5-carboxylic acid amide]"
5,109%,"CN(C(=O)c1ccc2c(c1)C(NC(=O)CCC1CCCC1)CC2)C1CCN(c2ccc3cnccc3c2)CC1 (stereo not shown) [CC_H-381, 3-(3-Cyclopentyl-propanoylamino)-N-(1-isoquinolin-6-yl-piperidin-4-yl)-N-methyl-2,3-dihydro-1H-indene-5-carboxylic acid amide]"
6,50%,"CN(C(=O)c1ccc2c(c1)C(NS(=O)(=O)Cc1cccc(C(F)(F)F)c1)CC2)C1CCN(c2ccc3cnccc3c2)CC1 (stereo not shown) [CC_H-383, N-(1-Isoquinolin-6-yl-piperidin-4-yl)-N-methyl-3-[[[3-(trifluoromethyl)phenyl]-methylsulfonyl]amino]-2,3-dihydro-1H-indene-5-carboxylic acid amide]"
7,109%,"CN(C(=O)c1ccc2c(c1)C(NS(=O)(=O)Cc1ccccc1F)CC2)C1CCN(c2ccc3cnccc3c2)CC1 (stereo not shown) [CC_H-384, 3-[[(2-Fluorophenyl)-methylsulfonyl]amino]-N-(1-isoquinolin-6-yl-piperidin-4-yl)-N-methyl-2,3-dihydro-1H-indene-5-carboxylic acid amide]"
